Assay results taken from patent publication US20250302767A1, “TREATMENT OF CANCER AND AUTOIMMUNE DISORDERS USING NANO POLYMERS OF HISTONE DEACETYLASE INHIBITORS” (University of Virginia Patent Foundation, priority 2021, published 2025).
Read-outs that look alike come from different tables or passages of the source.

Legend:
[1] = test system: acetylation of histone proteins H3 and H4 in HH cells; assay: Acetylation of histone H3 and H4 (flow cytometry, Western blot); assay type: cell-based, human; conditions: increasing doses, 30 hours
Description: Flow Cytometry. Cells were harvested after 30 hours of treatment, washed twice with PBS, fixed with 4% paraformaldehyde solution and permeabilized with 70% methanol before incubating with the relevant antibodies: HDAC1 Polyclonal Antibody (Proteintech), Rabbit anti-Acetyl Histone H3 K9/K14, and Rabbit Anti-Acetyl Histone H4 (Millipore). After 30 minutes incubation at room temperature cells are washed twice with PBS and FITC conjugated secondary Goat anti-rabbit antibodies (Thermofisher) were added. Cells were incubated on ice for 30 minutes and then washed in PBS. After the second wash, cells were resuspended in PBS with 4% FBS and ready for signal acquisition on a flow cytometer. Apoptosis in cell lines was assessed by the presence of cleaved Poly (ADP-ribose) polymerase-1 (PARP) using a flourochrome conjugated anti-cleaved PARP antibody (BD Biosciences). After staining the cells were acquired using an Attune Flow Cytometer and the data analyzed using FloJo analysis software. The Mean Fluorescence intensity (MFI) was indicative of the level of expression of each marker.
Western Blots. […] Antibodies were detected with the corresponding horseradish peroxidase-linked secondary antibodies. […] Signal detection and imaging was captured and analyzed using a CHEMIDOC™ System (Bio-Rad) with signal quantification. […]

[2] = Pharmacokinetic study, romidepsin in plasma; conditions: mouse, in vivo, 2.5 mg/kg
Description: Each treatment cohort was further divided into two sub-cohorts depending upon the route of administration (IP or IV). […] Mice were sacrificed (n=3 per time point) at 1, 3, 6, 18, 24, 48, and 72 hours after the treatment. Blood (˜1 mL) was collected via terminal cardiac puncture under CO2 anesthesia and collected in EDTA-coated K3EDTA tubes followed by centrifugation (2000×g for 15 min) to isolate plasma. Plasma was placed in cryopreservation vials and preserved by snap freezing using liquid nitrogen. Blood from three untreated mice was collected at the beginning of the treatment (T=0) and used as a control.
For efficacy study: 5- to 7-week-old female NOD.Cg-Prkdcscid Il2rgtm1Wjl/SzJ mice (The Jackson Laboratory). were injected with 3 million a fluorescent protein, Chili (dTomato-absorption max and emission max at 554 nm and 581 nm respectively)—and a bioluminescence generating protein, firefly luciferase (Luc) expressing H9 cells subcutaneously in the flank. In vivo BLI analysis was conducted on a cryogenically cooled Lago X (Spectral Instruments Imaging system). Mice were imaged twice a week starting 4 days after inoculation of cells. […] Baseline imaging data were recorded for all mice on day 1 (start of drug administration) and on each day of drug administration before the treatment. The numbers of animals, study design, and treatment of animals were reviewed, and approved by the Institutional Animal Care and Use Committee (IACUC) of the University of Virginia, Charlottesville, Virginia, United States of America.

[3] = test system: H9-dtomato-luciferase tumor; assay: Efficacy study, xenograft bioluminescence imaging; assay type: in vivo, NOD.Cg-Prkdcscid Il2rgtm1Wjl/SzJ mice (human H9 xenografts); conditions: 2 mg/kg IP on days 1, 4, 8, 11; after day 17 of engraftment
Text: FIG. 15. Efficacy study using NanoRomidepsin PDLLA. […] In vivo, BLI images were acquired to determine the response after the romidepsin and NanoRomidepsin PDLLA treatment. All cohorts were imaged on days 7, 10, 14, and 17 days (arrows) after post-engraftment using Lago X Spectrum Imaging System before the administration of drugs. After acquisition of images, a mean BLI curve of human H9 xenografts was generated where the y axis represents total flux (photon/s) and x axis represents time (Days) function.

PTCL = conditions: cited from earlier work; for Outcomes: ORR / Outcomes: CR / Outcomes: DOR: patients with PTCL; for response, share of patients: R/R PTCL
[4] = single agent, pivotal trial cited per drug (romidepsin: trial (6))

C/C=C1\NC(=O)[C@H]2CSSCC/C=C/[C@H](CC(=O)N[C@H](C(C)C)C(=O)N2)OC(=O)[C@H](C(C)C)NC1=O [Romidepsin, (1S,4S,7Z,10S,16E,21R)-7-Ethylidene-4,21-diisopropyl-2-oxa-12,13-dithia-5,8,20,23-tetrazabicyclo[8.7.6]tricos-16-ene-3,6,9,19,22-pentone]
acetylation of H3 and H4 (flow cytometry) [1]: concentration dependent increase in the acetylation of both H3 and H4 | AUC(0-inf) ([2]; ip): 1930 ng·h/mL | AUC(0-t) ([2]; ip): 1920 ng·h/mL | Cmax ([2]; ip): 120 ng/mL | MRT inf ([2]; ip): 12.8 h | Tmax ([2]; ip): 6 h | Vd/F ([2]; ip): 20 L/kg | half-life ([2]; ip): 590 min | AUC(0-inf) ([2]; iv): 108 ng·h/mL | AUC(0-t) ([2]; iv): 99.3 ng·h/mL | Cmax ([2]; iv): 21.3 ng/mL | MRT inf ([2]; iv): 5.53 h | Tmax ([2]; iv): 1 h | half-life ([2]; iv): 313 min | tumor response (BLI) compared to the control and ghost nanoparticle group [3]: cytostatic effect | Outcomes: ORR (PTCL; single agent, pivotal trial cited per drug (romidepsin: trial (6) Coiffier et al., 2014)): 25% | Outcomes: CR (PTCL; [4]): 15% | Outcomes: DOR (PTCL; [4]): 28 months | Outcomes: CR (PTCL; trial (7) Piekarz et al., 2011): 18% | Outcomes: DOR (PTCL; trial (7) Piekarz et al., 2011): 8.9 months | Outcomes: ORR (PTCL; trial (7) Piekarz et al., 2011): 38% | response, share of patients (PTCL; single agent): 25% | response, share of patients (PTCL; single agent, listed as romidepsin): about 25%
